From publication PMC5218480 (PLoS ONE, 2017)

Test system: MV-4-11 cells
Test: Gene expression microarray analysis (Affymetrix PrimeView) and GSEA
Format: cell-based, human
Parameters: RFU PODN (11730768_x_at) / Fold change /veh PODN (11730768_x_at) / RFU LINC00158 (11744669_a_at) / Fold change /veh LINC00158 (11744669_a_at) / RFU DUSP10 (11751237_a_at) / Fold change /veh DUSP10 (11751237_a_at) / RFU ID3 (11757404_x_at) / Fold change /veh ID3 (11757404_x_at) / RFU PLEKHG5 (11737974_s_at) / Fold change /veh PLEKHG5 (11737974_s_at) / RFU LRRC4B (11730491_at) / Fold change /veh LRRC4B (11730491_at) / RFU GIMAP4 (11747438_a_at) / Fold change /veh GIMAP4 (11747438_a_at) / RFU KRT8 (11758183_x_at) / Fold change /veh KRT8 (11758183_x_at) / RFU CNN1 (11734310_a_at) / Fold change /veh CNN1 (11734310_a_at) / RFU VPS37D (11726825_at) / Fold change /veh VPS37D (11726825_at) / RFU C10orf10 (11716522_x_at) / Fold change /veh C10orf10 (11716522_x_at) / RFU KIR2DL2 /// KIR2DL4 /// KIR2DL5A /// KIR2DL5B /// KIR2DS1 /// KIR2DS2 /// KIR2DS3 /// KIR2DS4 /// KIR3DL3 /// KIR3DL3 /// KIR3DS1 (11738374_at) / Fold change /veh KIR2DL2 /// KIR2DL4 /// KIR2DL5A /// KIR2DL5B /// KIR2DS1 /// KIR2DS2 /// KIR2DS3 /// KIR2DS4 /// KIR3DL3 /// KIR3DL3 /// KIR3DS1 (11738374_at) / RFU C1QL1 (11718748_at) / Fold change /veh C1QL1 (11718748_at) / RFU TMPRSS4 (11747572_a_at) / Fold change /veh TMPRSS4 (11747572_a_at) / RFU HAMP (11756126_x_at) / Fold change /veh HAMP (11756126_x_at) / RFU RNFT2 (11725882_a_at) / Fold change /veh RNFT2 (11725882_a_at) / RFU NR4A2 (11747474_a_at) / Fold change /veh NR4A2 (11747474_a_at) / RFU ABCC12 (11746883_a_at) / Fold change /veh ABCC12 (11746883_a_at) / RFU TMEM136 (11760407_x_at) / Fold change /veh TMEM136 (11760407_x_at) / RFU CLDN22 /// WWC2 (11732394_at) / Fold change /veh CLDN22 /// WWC2 (11732394_at) / RFU HLA-DPB1 (11760878_x_at) / Fold change /veh HLA-DPB1 (11760878_x_at) / RFU SPINT1 (11716480_a_at) / Fold change /veh SPINT1 (11716480_a_at) / RFU GAP43 (11754022_s_at) / Fold change /veh GAP43 (11754022_s_at) / RFU A4GNT (11735810_at) / Fold change /veh A4GNT (11735810_at) / RFU PRB3 (11715151_x_at) / Fold change /veh PRB3 (11715151_x_at) / RFU TUBB4B (11761932_at) / Fold change /veh TUBB4B (11761932_at) / RFU CAPN14 (11732068_a_at) / Fold change /veh CAPN14 (11732068_a_at) / RFU TMCC2 (11721928_a_at) / Fold change /veh TMCC2 (11721928_a_at) / RFU IRGQ (11745062_a_at) / Fold change /veh IRGQ (11745062_a_at) / RFU FAM174B (11720279_a_at) / Fold change /veh FAM174B (11720279_a_at) / RFU TMPRSS4 (11748680_a_at) / Fold change /veh TMPRSS4 (11748680_a_at) / RFU FAM212B (11763350_a_at) / Fold change /veh FAM212B (11763350_a_at) / RFU PLEKHG5 (11743358_a_at) / Fold change /veh PLEKHG5 (11743358_a_at) / RFU ZSCAN30 (11745921_a_at) / Fold change /veh ZSCAN30 (11745921_a_at) / RFU CMKLR1 (11741424_a_at) / Fold change /veh CMKLR1 (11741424_a_at) / RFU LOC101060620 /// MAPK8IP1 (11723275_at) / Fold change /veh LOC101060620 /// MAPK8IP1 (11723275_at) / RFU SPTSSB (11747773_x_at) / Fold change /veh SPTSSB (11747773_x_at) / RFU PRSS12 (11739890_at) / Fold change /veh PRSS12 (11739890_at) / RFU BIN1 (11741810_x_at) / Fold change /veh BIN1 (11741810_x_at) / RFU WNT11 (11732464_a_at) / Fold change /veh WNT11 (11732464_a_at) / RFU C10orf10 (11716521_a_at) / Fold change /veh C10orf10 (11716521_a_at) / RFU C5orf56 (11738089_at) / Fold change /veh C5orf56 (11738089_at) / RFU CYB561 (11721691_x_at) / Fold change /veh CYB561 (11721691_x_at) / RFU ANKRD19P (11752326_a_at) / Fold change /veh ANKRD19P (11752326_a_at) / RFU OR2T12 /// OR2T33 /// OR2T8 (11738714_s_at) / Fold change /veh OR2T12 /// OR2T33 /// OR2T8 (11738714_s_at) / RFU VCAN (11748164_a_at) / Fold change /veh VCAN (11748164_a_at) / RFU JSRP1 (11732532_at) / Fold change /veh JSRP1 (11732532_at) / RFU KRTAP10-11 (11738290_x_at) / Fold change /veh KRTAP10-11 (11738290_x_at) / RFU MYO3A (11730013_a_at) / Fold change /veh MYO3A (11730013_a_at) / RFU EBF3 (11725865_a_at) / Fold change /veh EBF3 (11725865_a_at) / RFU CAMK2N1 (11719241_x_at) / Fold change /veh CAMK2N1 (11719241_x_at) / RFU C5orf56 (11738088_a_at) / Fold change /veh C5orf56 (11738088_a_at) / RFU OLFML3 (11715873_a_at) / Fold change /veh OLFML3 (11715873_a_at) / RFU LOC100653217 /// NTM (11731650_a_at) / Fold change /veh LOC100653217 /// NTM (11731650_a_at) / RFU MAPK11 (11762145_a_at) / Fold change /veh MAPK11 (11762145_a_at) / RFU FIZ1 (11724087_x_at) / Fold change /veh FIZ1 (11724087_x_at) / RFU OASL (11726364_x_at) / Fold change /veh OASL (11726364_x_at) / RFU SOX15 (11748057_x_at) / Fold change /veh SOX15 (11748057_x_at) / RFU CD79A (11719716_a_at) / Fold change /veh CD79A (11719716_a_at) / RFU HIST1H1D (11736915_at) / Fold change /veh HIST1H1D (11736915_at) / RFU CASKIN2 (11723855_a_at) / Fold change /veh CASKIN2 (11723855_a_at) / RFU LOC730098 (11760151_x_at) / Fold change /veh LOC730098 (11760151_x_at) / RFU OR4N2 (11742367_at) / Fold change /veh OR4N2 (11742367_at) / RFU PRRT2 (11749266_a_at) / Fold change /veh PRRT2 (11749266_a_at) / RFU SNX32 (11753110_a_at) / Fold change /veh SNX32 (11753110_a_at) / RFU CDHR5 (11726645_a_at) / Fold change /veh CDHR5 (11726645_a_at) / RFU RCAN1 (11760418_a_at) / Fold change /veh RCAN1 (11760418_a_at) / RFU FAM167A (11723789_a_at) / Fold change /veh FAM167A (11723789_a_at) / RFU FAM26E (11764081_at) / Fold change /veh FAM26E (11764081_at) / RFU ISYNA1 (11749810_s_at) / Fold change /veh ISYNA1 (11749810_s_at) / RFU ACY1 (11761880_at) / Fold change /veh ACY1 (11761880_at) / RFU 11764098_at / Fold change /veh 11764098_at / RFU SAMD14 (11745864_x_at) / Fold change /veh SAMD14 (11745864_x_at) / RFU NPB (11741838_a_at) / Fold change /veh NPB (11741838_a_at) / RFU TMPRSS6 (11731388_a_at) / Fold change /veh TMPRSS6 (11731388_a_at) / RFU KRTAP10-2 (11738614_at) / Fold change /veh KRTAP10-2 (11738614_at) / RFU ARHGAP8 /// PRR5-ARHGAP8 (11727945_x_at) / Fold change /veh ARHGAP8 /// PRR5-ARHGAP8 (11727945_x_at) / RFU KRTAP5-7 /// NADSYN1 (11734609_at) / Fold change /veh KRTAP5-7 /// NADSYN1 (11734609_at) / RFU RASL12 (11751679_a_at) / Fold change /veh RASL12 (11751679_a_at) / RFU CDKN2B (11736163_a_at) / Fold change /veh CDKN2B (11736163_a_at) / RFU PRF1 (11729649_at) / Fold change /veh PRF1 (11729649_at) / RFU, ZNF638 /// ZNF638-IT1 / Fold change vs veh, ZNF638 /// ZNF638-IT1 / RFU, PANK3 / Fold change vs veh, PANK3 / RFU, SH3YL1 / Fold change vs veh, SH3YL1 / RFU, ZEB2 / Fold change vs veh, ZEB2 / RFU, NRIP1 / Fold change vs veh, NRIP1 / RFU, PTTG1IP / Fold change vs veh, PTTG1IP / RFU, CAPN2 / Fold change vs veh, CAPN2 / RFU, MED14 / Fold change vs veh, MED14 / RFU, SNORA58 / Fold change vs veh, SNORA58 / RFU, C1orf63 / Fold change vs veh, C1orf63 / RFU, LRRFIP1 / Fold change vs veh, LRRFIP1 / RFU, NDUFAF7 / Fold change vs veh, NDUFAF7 / RFU, SLC12A2 / Fold change vs veh, SLC12A2 / RFU, IBTK / Fold change vs veh, IBTK / RFU, ESF1 / Fold change vs veh, ESF1 / Fold change vs veh, TMEM50B / RFU, TAOK1 / Fold change vs veh, TAOK1 / RFU, ACBD3 / Fold change vs veh, ACBD3 / RFU, TMA16 / Fold change vs veh, TMA16 / RFU, RWDD3 / Fold change vs veh, RWDD3 / RFU, BCAT1 / Fold change vs veh, BCAT1 / RFU, EDEM3 / Fold change vs veh, EDEM3 / RFU, TMEM33 / Fold change vs veh, TMEM33 / RFU, WDR75 / Fold change vs veh, WDR75 / RFU, AHCTF1 / Fold change vs veh, AHCTF1 / RFU, TFRC / Fold change vs veh, TFRC / RFU, ZDHHC17 / Fold change vs veh, ZDHHC17 / RFU, NOM1 / Fold change vs veh, NOM1 / RFU, ARL8B / Fold change vs veh, ARL8B / RFU, ZBTB11 / Fold change vs veh, ZBTB11 / RFU, TAMM41 / Fold change vs veh, TAMM41 / RFU, KIAA1704 /// LOC100996395 / Fold change vs veh, KIAA1704 /// LOC100996395 / RFU, ING1 / Fold change vs veh, ING1 / RFU, TRMT61B / Fold change vs veh, TRMT61B / RFU, FUBP3 / Fold change vs veh, FUBP3 / RFU, TP53 / Fold change vs veh, TP53 / RFU, TNKS2 / Fold change vs veh, TNKS2 / RFU, ZFP14 / Fold change vs veh, ZFP14 / RFU, ACTR2 / Fold change vs veh, ACTR2 / RFU, PPP3R1 / Fold change vs veh, PPP3R1 / RFU, PIK3R1 / Fold change vs veh, PIK3R1 / RFU, HNRNPA1 / Fold change vs veh, HNRNPA1 / RFU, RNF170 / Fold change vs veh, RNF170 / RFU, ZNF28 / Fold change vs veh, ZNF28 / RFU, RNGTT / Fold change vs veh, RNGTT / RFU, OGT / Fold change vs veh, OGT / RFU, BRD1 / Fold change vs veh, BRD1 / RFU, MARS / Fold change vs veh, MARS / RFU, ZNF655 / Fold change vs veh, ZNF655 / RFU, FAHD1 / Fold change vs veh, FAHD1 / RFU, BDP1 / Fold change vs veh, BDP1 / RFU, LRRCC1 / Fold change vs veh, LRRCC1 / RFU, ARID1A / Fold change vs veh, ARID1A / RFU, ZNF146 / Fold change vs veh, ZNF146 / RFU, ZNF330 / Fold change vs veh, ZNF330 / RFU, GPN3 / Fold change vs veh, GPN3 / RFU, C9orf123 / Fold change vs veh, C9orf123 / RFU, N4BP2L2 / Fold change vs veh, N4BP2L2 / RFU, ARFIP1 / Fold change vs veh, ARFIP1 / RFU, FAM179B / Fold change vs veh, FAM179B / RFU, BCL10 / Fold change vs veh, BCL10 / RFU, UHRF1BP1L / Fold change vs veh, UHRF1BP1L / RFU, BET1 / Fold change vs veh, BET1 / RFU, CNOT2 / Fold change vs veh, CNOT2 / RFU, ZNF268 / Fold change vs veh, ZNF268 / Fold change vs veh, ZNF507 / RFU, DGCR2 / Fold change vs veh, DGCR2 / RFU, WDSUB1 / Fold change vs veh, WDSUB1 / Fold change vs veh, HSP90B1 /// MIR3652 / RFU, ADSS / Fold change vs veh, ADSS / RFU, GK / Fold change vs veh, GK / RFU, ZNF148 / Fold change vs veh, ZNF148 / RFU, TAF9 / Fold change vs veh, TAF9 / RFU, SLC1A5 / Fold change vs veh, SLC1A5 / RFU, SLMO2 / Fold change vs veh, SLMO2 / RFU, ABCC4 / Fold change vs veh, ABCC4 / RFU, LOC101060439 /// RAP1B / Fold change vs veh, LOC101060439 /// RAP1B / RFU, RFX7 / Fold change vs veh, RFX7 / RFU, GTPBP10 / Fold change vs veh, GTPBP10 / RFU, CNEP1R1 / Fold change vs veh, CNEP1R1 / RFU, BIVM-ERCC5 /// ERCC5 / Fold change vs veh, BIVM-ERCC5 /// ERCC5 / RFU, ILF3 / Fold change vs veh, ILF3 / RFU 11762660_at / Fold change /veh 11762660_at / RFU VCAN (11757783_s_at) / Fold change /veh VCAN (11757783_s_at) / RFU DDX43 (11728927_at) / Fold change /veh DDX43 (11728927_at) / RFU KRT8 (11758188_x_at) / Fold change /veh KRT8 (11758188_x_at) / RFU NKD1 (11759106_at) / Fold change /veh NKD1 (11759106_at) / RFU SRD5A1 (11742802_a_at) / Fold change /veh SRD5A1 (11742802_a_at) / RFU TPSAB1 /// TPSB2 (11721975_s_at) / Fold change /veh TPSAB1 /// TPSB2 (11721975_s_at) / RFU GSTM3 (11746129_a_at) / Fold change /veh GSTM3 (11746129_a_at) / RFU IL23R (11737362_x_at) / Fold change /veh IL23R (11737362_x_at) / RFU TMEM51 (11727254_a_at) / Fold change /veh TMEM51 (11727254_a_at) / RFU PIWIL2 (11732686_x_at) / Fold change /veh PIWIL2 (11732686_x_at) / RFU ORM1 (11744905_x_at) / Fold change /veh ORM1 (11744905_x_at) / RFU CCDC152 (11743942_at) / Fold change /veh CCDC152 (11743942_at) / RFU ECM1 (11717891_a_at) / Fold change /veh ECM1 (11717891_a_at) / RFU IL23R (11748794_a_at) / Fold change /veh IL23R (11748794_a_at) / RFU TNFAIP8L3 (11732012_x_at) / Fold change /veh TNFAIP8L3 (11732012_x_at) / RFU MBOAT4 (11741988_at) / Fold change /veh MBOAT4 (11741988_at) / RFU 11764193_at / Fold change /veh 11764193_at / RFU TMEM53 (11763286_at) / Fold change /veh TMEM53 (11763286_at) / RFU MAGEB2 (11727129_at) / Fold change /veh MAGEB2 (11727129_at) / RFU TMEM200A (11744735_a_at) / Fold change /veh TMEM200A (11744735_a_at) / RFU CCDC152 (11751479_a_at) / Fold change /veh CCDC152 (11751479_a_at) / RFU FAM211A (11726209_a_at) / Fold change /veh FAM211A (11726209_a_at) / RFU RGS16 (11746705_a_at) / Fold change /veh RGS16 (11746705_a_at) / RFU VCAN (11755009_s_at) / Fold change /veh VCAN (11755009_s_at) / RFU RHOB (11743442_s_at) / Fold change /veh RHOB (11743442_s_at) / RFU RGS16 (11720943_a_at) / Fold change /veh RGS16 (11720943_a_at) / RFU RGS16 (11720944_at) / Fold change /veh RGS16 (11720944_at) / RFU, VPS4B / Fold change vs veh, VPS4B / RFU, CREB1 / Fold change vs veh, CREB1 / RFU, DNAJC13 / Fold change vs veh, DNAJC13 / RFU, GNAQ / Fold change vs veh, GNAQ / RFU, CDK5R1 / Fold change vs veh, CDK5R1 / RFU, ZRANB3 / Fold change vs veh, ZRANB3 / RFU, CUL4A / Fold change vs veh, CUL4A / RFU, CCNY / Fold change vs veh, CCNY / RFU, UFL1 / Fold change vs veh, UFL1 / RFU, COG3 / Fold change vs veh, COG3 / RFU, DIAPH2 / Fold change vs veh, DIAPH2 / RFU, SKA2 / Fold change vs veh, SKA2 / RFU, AFF3 / Fold change vs veh, AFF3 / RFU, LMF1 / Fold change vs veh, LMF1 / RFU, IPO11 / Fold change vs veh, IPO11 / RFU, DFFB / Fold change vs veh, DFFB / RFU, FOXP1 / Fold change vs veh, FOXP1 / RFU, CARD8 / Fold change vs veh, CARD8 / RFU, STRN3 / Fold change vs veh, STRN3 / RFU, ADK / Fold change vs veh, ADK / RFU, RASSF2 / Fold change vs veh, RASSF2 / RFU, WIPF1 / Fold change vs veh, WIPF1 / RFU, LARP1B / Fold change vs veh, LARP1B / RFU, RASA1 / Fold change vs veh, RASA1 / RFU, RB1 / Fold change vs veh, RB1 / RFU, PPFIA1 / Fold change vs veh, PPFIA1 / RFU, MAT2A / Fold change vs veh, MAT2A / RFU, CCT5 / Fold change vs veh, CCT5 / RFU, WDR92 / Fold change vs veh, WDR92 / RFU, CUX1 / Fold change vs veh, CUX1 / RFU, TTC7A / Fold change vs veh, TTC7A / RFU, TMEM135 / Fold change vs veh, TMEM135 / RFU, DEPTOR / Fold change vs veh, DEPTOR / RFU, CPM / Fold change vs veh, CPM / RFU, DNAJB6 / Fold change vs veh, DNAJB6 / RFU, CACNA2D3 / Fold change vs veh, CACNA2D3 / RFU, DTX4 / Fold change vs veh, DTX4 / RFU, TFCP2 / Fold change vs veh, TFCP2 / RFU, GMCL1 /// GMCL1P1 / Fold change vs veh, GMCL1 /// GMCL1P1 / RFU, AEBP2 / Fold change vs veh, AEBP2 / RFU, SNHG1 /// SNORD22 /// SNORD25 /// SNORD26 /// SNORD27 /// SNORD28 /// SNORD29 /// SNORD31 / Fold change vs veh, SNHG1 /// SNORD22 /// SNORD25 /// SNORD26 /// SNORD27 /// SNORD28 /// SNORD29 /// SNORD31 / Fold change (Aza/veh), C12orf56 (ProbeSet 11735607_a_at) / Fold change (ACY-1035/veh), C12orf56 (ProbeSet 11735607_a_at) / Fold change (Aza/veh), FGFR1OP (ProbeSet 11751329_s_at) / Fold change (ACY-1035/veh), FGFR1OP (ProbeSet 11751329_s_at) / Fold change (Aza/veh), VPS36 (ProbeSet 11739960_a_at) / Fold change (ACY-1035/veh), VPS36 (ProbeSet 11739960_a_at) / RFU SYPL1 (11715823_x_at) / Fold change /veh SYPL1 (11715823_x_at) / RFU IGFBP7 (11715501_s_at) / Fold change /veh IGFBP7 (11715501_s_at) / RFU REEP3 (11722064_at) / Fold change /veh REEP3 (11722064_at) / RFU IGLL1 (11728026_x_at) / Fold change /veh IGLL1 (11728026_x_at): dose or concentration left out as unconfirmed
Conditions: ProbeSet 11728879_at; LIST B

With `Nc1ncn([C@@H]2O[C@H](CO)[C@@H](O)[C@H]2O)c(=O)n1` [azacitidine] the “Fold change vs veh, PPP3R1” value was 0.88.
